From patent EP0520200B1, “Imidazole compounds, their preparation and use” (NEUROSEARCH A/S, priority 1991, dated 1992)

Assays:
[1] = tested on: voltage operated calcium channels; test: Depolarization (potassium) induced 45Ca uptake into synaptosomes; type: biochemical, male Wistar rat; conditions: concentration inhibiting 50% of potassium stimulated uptake of 45Ca; rat cerebral cortex synaptosomes; corrected for basal uptake in non-depolarized samples
Experimental: A crude synaptosome preparation contains small vesicles surrounded by neuronal membranes, and it is possible to study an opening of the voltage operated calcium channels in such a preparation.
In the below described test influx of ^45Ca into synaptosomes is studied under depolarized conditions. The effect of test substances on the depolarization induced calcium uptake can thus be studied.
The cerebral cortex from a male Wistar rat is homogenized in 20 ml ice cold 0.32M saccharose. In the following steps the temperature is kept at 0°C to 4°C. The homogenate is centrifuged at 1,000 x g for 10 minutes and the supernatant recentrifuged for 20 minutes at 18,000 x g. The obtained pellet is resuspended in 0.32M saccharose (10 ml per g of original tissue).
Aliquots of 0.05 ml of the hereby obtained synaptosome suspension are added to glass tubes containing 0.625 ml of a NaCl buffer (136 mM Nacl, 4 Mm KCl, 0.35 mM CaCl2, 1.2 mM MgCl2, 20 mM Tris HCl, 12 mM glucose, pH 7.4) as well as 0.025 ml of different test substances in 48% ethanol. These tubes are pre-incubated for 30 minutes on ice and thereafter for 6 minutes at 37°C.
^45Ca uptake is initiated by addition to above glass-tubes of 0.4 ml ^45CaCl2 (specific activity: 29-39 Ci/g; […] per tube). For depolarized samples the 0.4 ml ^45CaCl2 contain KCl (145 mM) and for non-depolarized NaCl (145 mM). The samples are incubated for 15 seconds.
The ^45Ca uptake is stopped by filtering through glass fibre filters, which are subsequently washed 3 times with an ice cold solution of 145 mM KCl, 7 mM EGTA and 20 mM Tris HCl, pH 7.4 (5.0 ml). The radioactivity on the filters are measured by liquid scintillation spectrometry. Experiments are performed in duplicate.
Above test substances are dissolved in for example 10 ml 48% ethanol at a concentration of 0.44 mg/ml. Dilutions are made in ethanol. Test substances are tested at concentrations of 0.1, 0.3, 1, 3, 10 .... µg/ml.
The test value is given as IC50, that is the concentration in µM of the test substances, which inhibit 50% of the potassium stimulated uptake of ^45Ca. […]

hypermotility in mice = test: Hypermotility in mice induced by amphetamine or cocaine; type: in vivo; conditions: result in words
Text: This is in full accordance with the influence of N-type calcium channel blockers on transmitter release in the central nervous system. Therefore the compounds of the invention are useful as anti-psychotics.

IC50 [1] [nM]	Structure (SMILES)	antagonism of hypermotility (hypermotility in mice)
2000	Nc1nc2cc(C(F)(F)F)ccc2n1-c1cc(Cl)ccc1O [1-(2-hydroxy-5-chlorophenyl)-5-trifluoromethyl-2-amino-benzimidazole]	
700	COc1ccc(OC)c(-n2c(N)nc3cc(C(F)(F)F)ccc32)c1 [1-(2,5-dimethoxyphenyl)-2-amino-5-trifluoromethyl-benzimidazole]	
	Nc1nc2ccccc2n1-c1cc(-c2ccccc2)ccc1O [1-(2-hydroxy-5-phenyl-phenyl)-2-aminobenzimidazole]	potently antagonize
2000	Nc1nc2cc(F)ccc2n1-c1cccc(N2CCCC2)c1 [1-(5-(1-pyrrolidinyl)-phenyl)-2-amino-5-fluoro-benzimidazole]	
